Assay results published in ChEMBL document CHEMBL5608245, “Inhibition of the EphA2-Sam/Ship2-Sam Association through Peptide Ligands: Studying the Combined Effect of Charge and Aromatic Character” (J Med Chem, 2024).
Active and inactive are the calls of the source. No cut-off for these calls is given here. Where a SMILES comes first, the peptide text is derived from it.

Legend:
PC-3 = experiment: Cytotoxicity against human PC-3 cells assessed as reduction in cell viability at 50 uM incubated for 4 hrs by crystal violet staining based assay; type: toxicity; conditions: pc-3, 4 h
NHDF = experiment: Cytotoxicity against human NHDF cells assessed as reduction in cell viability at 50 uM incubated for 4 hrs by crystal violet staining based assay; type: toxicity
Homo sapiens = species on record: Homo sapiens; conditions: dose 4.2 mM
Description: Inhibition of recombinant human 15N-labeled EPHA2 Sam domain (904 to 968 residues)/recombinant human SHIP2 Sam domain (1194 to 1258 residues) protein-protein interaction extracted from Escherichia coli BL21 (DE3) cells at 4.2 mM by NMR displacement assay

[1] = molecular target: Ephrin type-A receptor 2 (Homo sapiens) (UniProt P29317); experiment: Induction of EPHA2 receptor internalization in human PC-3 cells assessed as effect on EPHA2 protein level at 50 uM preincubated for 4 hrs followed by ephrinA1-Fc addition and measured after 2 hrs by Western blotting analysis; type: cell-based; conditions: time 6.0 hrs
[2] = molecular target: Ephrin type-A receptor 2 (Homo sapiens) (UniProt P29317); experiment: Induction of EPHA2 receptor internalization in human PC-3 cells assessed as effect on EPHA2 protein level at 50 uM incubated for 4 hrs by Western blotting analysis; type: cell-based
[3] = molecular target: Tyrosine-protein kinase Lyn (Homo sapiens) (UniProt P07948); experiment: Binding affinity to His tagged human LYN SH2 domain (129 to 226 residues) extracted from Escherichia coli BL21 (DE3) cells at 289 uM by NMR spectroscopy
[4] = Self-assembly property of compound in 80% TFE assessed as helical content by circular dichroism spectra analysis; type: physicochemical
[5] = molecular target: Arf-GAP with Rho-GAP domain, ANK repeat and PH domain-containing protein 3 (Homo sapiens) (UniProt Q8WWN8); experiment: Binding affinity to N-terminal His6 tagged human ARAP3 Sam domain (1 to 80 residues) extracted from Escherichia coli BL21 (DE3) cells at 300 uM by NMR spectroscopy
Arf-GAP with Rho-GAP domain, ANK repeat and PH domain-containing protein 3 (Homo sapiens), sequence (Q8WWN8 whole entry, the tested form may be a part): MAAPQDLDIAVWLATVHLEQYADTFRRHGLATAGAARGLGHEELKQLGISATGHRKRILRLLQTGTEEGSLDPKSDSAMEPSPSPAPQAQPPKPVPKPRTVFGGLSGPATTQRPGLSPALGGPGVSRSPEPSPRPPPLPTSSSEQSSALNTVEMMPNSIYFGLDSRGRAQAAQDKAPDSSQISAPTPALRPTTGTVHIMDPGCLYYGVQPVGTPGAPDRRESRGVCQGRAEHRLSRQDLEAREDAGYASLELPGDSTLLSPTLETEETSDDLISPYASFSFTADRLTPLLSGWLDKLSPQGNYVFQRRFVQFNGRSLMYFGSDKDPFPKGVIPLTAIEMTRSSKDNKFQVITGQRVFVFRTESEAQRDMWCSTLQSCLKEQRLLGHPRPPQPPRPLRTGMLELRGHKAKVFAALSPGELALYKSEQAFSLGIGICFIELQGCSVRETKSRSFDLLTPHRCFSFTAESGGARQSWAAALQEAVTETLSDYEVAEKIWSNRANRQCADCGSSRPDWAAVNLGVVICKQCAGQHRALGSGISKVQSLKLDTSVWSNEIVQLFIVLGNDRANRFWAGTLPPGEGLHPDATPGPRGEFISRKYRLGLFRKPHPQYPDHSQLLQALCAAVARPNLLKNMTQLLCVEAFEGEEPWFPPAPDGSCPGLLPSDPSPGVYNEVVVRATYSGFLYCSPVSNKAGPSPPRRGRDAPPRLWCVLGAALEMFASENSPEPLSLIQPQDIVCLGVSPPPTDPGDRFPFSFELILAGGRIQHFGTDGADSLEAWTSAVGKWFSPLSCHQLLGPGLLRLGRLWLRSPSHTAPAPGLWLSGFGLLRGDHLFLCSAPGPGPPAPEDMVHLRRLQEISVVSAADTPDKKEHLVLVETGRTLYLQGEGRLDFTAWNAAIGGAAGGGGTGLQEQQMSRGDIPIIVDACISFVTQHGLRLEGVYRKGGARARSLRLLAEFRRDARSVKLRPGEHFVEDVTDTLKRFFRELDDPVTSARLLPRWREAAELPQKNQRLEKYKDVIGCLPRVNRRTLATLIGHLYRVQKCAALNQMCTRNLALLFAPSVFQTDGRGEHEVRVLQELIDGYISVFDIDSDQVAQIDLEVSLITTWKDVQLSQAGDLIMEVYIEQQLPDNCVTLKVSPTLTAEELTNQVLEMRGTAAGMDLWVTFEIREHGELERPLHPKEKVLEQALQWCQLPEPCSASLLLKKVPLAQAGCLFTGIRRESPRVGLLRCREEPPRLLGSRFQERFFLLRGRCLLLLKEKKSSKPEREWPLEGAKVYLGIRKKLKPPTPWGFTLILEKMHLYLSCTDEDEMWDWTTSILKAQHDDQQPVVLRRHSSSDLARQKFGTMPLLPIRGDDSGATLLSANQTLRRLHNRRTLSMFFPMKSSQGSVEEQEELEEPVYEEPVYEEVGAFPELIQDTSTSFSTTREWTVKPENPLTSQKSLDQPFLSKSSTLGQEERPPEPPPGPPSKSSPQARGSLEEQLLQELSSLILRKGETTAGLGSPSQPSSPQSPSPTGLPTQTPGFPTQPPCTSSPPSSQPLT

Ephrin type-A receptor 2 (Homo sapiens), sequence (P29317 whole entry, the tested form may be a part): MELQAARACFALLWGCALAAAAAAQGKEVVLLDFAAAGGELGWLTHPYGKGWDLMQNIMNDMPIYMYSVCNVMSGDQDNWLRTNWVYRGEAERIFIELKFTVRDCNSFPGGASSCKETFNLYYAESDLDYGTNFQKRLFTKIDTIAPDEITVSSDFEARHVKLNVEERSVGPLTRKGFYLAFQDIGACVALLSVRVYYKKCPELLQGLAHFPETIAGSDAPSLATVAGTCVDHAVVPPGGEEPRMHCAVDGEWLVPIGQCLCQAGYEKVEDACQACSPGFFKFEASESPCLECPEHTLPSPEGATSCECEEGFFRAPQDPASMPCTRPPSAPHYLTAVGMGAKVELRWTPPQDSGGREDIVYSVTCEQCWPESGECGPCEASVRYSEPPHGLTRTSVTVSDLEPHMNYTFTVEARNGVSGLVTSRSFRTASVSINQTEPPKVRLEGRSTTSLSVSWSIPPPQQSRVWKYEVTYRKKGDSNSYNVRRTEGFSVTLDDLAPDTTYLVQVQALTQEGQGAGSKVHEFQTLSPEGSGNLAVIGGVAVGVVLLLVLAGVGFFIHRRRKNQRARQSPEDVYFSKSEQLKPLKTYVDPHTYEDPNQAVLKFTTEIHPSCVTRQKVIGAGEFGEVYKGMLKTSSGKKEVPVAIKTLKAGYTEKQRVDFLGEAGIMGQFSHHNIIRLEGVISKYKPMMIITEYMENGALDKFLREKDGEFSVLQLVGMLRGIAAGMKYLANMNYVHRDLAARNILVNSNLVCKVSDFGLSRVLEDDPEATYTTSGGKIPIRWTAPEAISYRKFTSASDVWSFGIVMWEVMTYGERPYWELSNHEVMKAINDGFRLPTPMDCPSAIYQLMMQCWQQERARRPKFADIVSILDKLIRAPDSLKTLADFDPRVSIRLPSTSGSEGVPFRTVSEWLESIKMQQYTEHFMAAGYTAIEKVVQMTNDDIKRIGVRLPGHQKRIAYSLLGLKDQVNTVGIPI
Tyrosine-protein kinase Lyn (Homo sapiens), sequence (P07948 2-512 limits assumed): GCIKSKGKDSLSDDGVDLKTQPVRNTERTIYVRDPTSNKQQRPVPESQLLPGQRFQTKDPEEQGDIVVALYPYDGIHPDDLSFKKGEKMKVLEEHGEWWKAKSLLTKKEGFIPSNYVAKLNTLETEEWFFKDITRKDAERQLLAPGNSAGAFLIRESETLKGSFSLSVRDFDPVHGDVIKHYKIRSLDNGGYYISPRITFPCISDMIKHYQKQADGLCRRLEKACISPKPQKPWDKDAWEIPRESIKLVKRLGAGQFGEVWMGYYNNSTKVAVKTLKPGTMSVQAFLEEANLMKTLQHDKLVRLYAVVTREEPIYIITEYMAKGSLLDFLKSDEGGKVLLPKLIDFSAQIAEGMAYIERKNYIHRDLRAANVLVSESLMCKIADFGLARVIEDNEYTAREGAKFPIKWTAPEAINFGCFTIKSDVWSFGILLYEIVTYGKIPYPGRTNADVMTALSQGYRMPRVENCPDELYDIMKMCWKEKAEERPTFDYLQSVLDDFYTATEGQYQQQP

| Structure (SMILES) | Activity [1] | Activity [2] | other results |
| --- | --- | --- | --- |
| CC(=O)N[C@@H](C)C(=O)NCC(=O)N[C@@H](CCCNC(=N)N)C(=O)N[C@@H](CCCCN)C(=O)N[C@@H](CCCCN)C(=O)N[C@@H](CCCNC(=N)N)C(=O)N[C@@H](CCCNC(=N)N)C(=O)N[C@@H](CCC(N)=O)C(=O)N[C@@H](CCCNC(=N)N)C(=O)N[C@@H](CCCNC(=N)N)C(=O)N[C@@H](CCCNC(=N)N)C(=O)N1CCC[C@H]1C(=O)N1CCC[C@H]1C(=O)N[C@@H](CCC(N)=O)C(=O)NCC(=O)NCC(=O)N[C@@H](CCCCN)C(=O)N[C@@H](CCCNC(=N)N)C(=O)N[C@@H](CCCCN)C(=O)N[C@@H](C)C(=O)N[C@@H](Cc1ccc(O)cc1)C(=O)N[C@@H](CCCCN)C(=O)N[C@@H](CCCNC(=N)N)C(=O)N[C@@H](CCCCN)C(=O)N[C@@H](C)C(=O)N[C@@H](Cc1ccc(O)cc1)C(=O)N[C@@H](CCCCN)C(=O)N[C@@H](CCCNC(=N)N)C(=O)N[C@@H](CCCCN)C(=O)N[C@@H](C)C(=O)N[C@@H](CO)C(N)=O |  |  | Activity (PC-3): Toxic; Activity (NHDF): Toxic |
| CC[C@H](C)[C@H](NC(=O)[C@H](CCCNC(=N)N)NC(=O)[C@H](CCCCN)NC(=O)[C@H](Cc1ccc(O)cc1)NC(=O)[C@H](C)NC(=O)[C@H](CCCCN)NC(=O)[C@H](CCCNC(=N)N)NC(=O)[C@H](CCCCN)NC(=O)[C@H](Cc1ccc(O)cc1)NC(=O)[C@H](C)NC(=O)[C@H](CCCCN)NC(=O)[C@H](CCCNC(=N)N)NC(=O)[C@H](CCCCN)NC(C)=O)C(=O)N[C@@H](C)C(=O)N[C@@H](Cc1ccc(O)cc1)C(N)=O (Ac-KRKAYKRKAYKRIAY-NH2) |  |  | inhibition (Homo sapiens): inactive |
| CC[C@H](C)[C@H](NC(=O)[C@H](CCCNC(=N)N)NC(=O)[C@H](CCCCN)NC(=O)CNC(=O)CNC(=O)[C@H](CCC(N)=O)NC(=O)[C@@H]1CCCN1C(=O)[C@@H]1CCCN1C(=O)[C@@H](CCCNC(=N)N)NC(=O)[C@@H](CCCNC(=N)N)NC(=O)[C@@H](CCCNC(=N)N)NC(=O)[C@@H](CCC(N)=O)NC(=O)[C@@H](CCCNC(=N)N)NC(=O)[C@@H](CCCNC(=N)N)NC(=O)[C@@H](CCCCN)NC(=O)[C@@H](CCCCN)NC(=O)[C@@H](CCCNC(=N)N)NC(=O)CNC(=O)[C@H](C)NC(C)=O)C(=O)N[C@@H](C)C(=O)N[C@@H](Cc1ccc(O)cc1)C(=O)N[C@@H](CCCCN)C(=O)N[C@@H](CCCNC(=N)N)C(=O)N[C@H](C(=O)N[C@@H](C)C(=O)N[C@@H](Cc1ccc(O)cc1)C(=O)N[C@@H](CCCCN)C(=O)N[C@@H](CCCNC(=N)N)C(=O)N[C@H](C(=O)N[C@@H](C)C(=O)N[C@@H](Cc1ccc(O)cc1)C(N)=O)[C@@H](C)CC)[C@@H](C)CC | inactive | inactive |  |
| CC(=O)N[C@@H](C)C(=O)NCC(=O)N[C@H](CCCNC(=N)N)C(=O)N[C@H](CCCCN)C(=O)N[C@H](CCCCN)C(=O)N[C@H](CCCNC(=N)N)C(=O)N[C@H](CCCNC(=N)N)C(=O)N[C@H](CCC(N)=O)C(=O)N[C@H](CCCNC(=N)N)C(=O)N[C@H](CCCNC(=N)N)C(=O)N[C@H](CCCNC(=N)N)C(=O)N1CCC[C@H]1C(=O)N1CCC[C@H]1C(=O)N[C@@H](CCC(N)=O)C(=O)NCC(=O)NCC(=O)N[C@@H](CCCCN)C(=O)N[C@@H](CCCNC(=N)N)C(=O)N[C@@H](CCCCN)C(=O)N[C@@H](C)C(=O)N[C@@H](Cc1ccc(O)cc1)C(=O)N[C@@H](CCCCN)C(=O)N[C@@H](CCCNC(=N)N)C(=O)N[C@@H](CCCCN)C(=O)N[C@@H](C)C(=O)N[C@@H](Cc1ccc(O)cc1)C(=O)N[C@@H](CCCCN)C(=O)N[C@@H](CCCNC(=N)N)C(=O)N[C@@H](CCCCN)C(=O)N[C@@H](C)C(=O)N[C@@H](CO)C(N)=O | inactive | inactive |  |
| CC(=O)N[C@@H](CCCCN)C(=O)N[C@@H](CCCNC(=N)N)C(=O)N[C@@H](CCCCN)C(=O)N[C@@H](C)C(=O)N[C@@H](Cc1c[nH]c2ccccc12)C(=O)N[C@@H](CCCCN)C(=O)N[C@@H](CCCNC(=N)N)C(=O)N[C@@H](CCCCN)C(=O)N[C@@H](C)C(=O)N[C@@H](Cc1ccc(O)cc1)C(=O)N[C@@H](CCCCN)C(=O)N[C@@H](CCCNC(=N)N)C(=O)N[C@@H](CCCCN)C(=O)N[C@@H](C)C(=O)N[C@@H](Cc1c[nH]c2ccccc12)C(N)=O (Ac-KRKAWKRKAYKRKAW-NH2) |  |  | Activity [3]: inactive |
| CC(=O)N[C@@H](CCCCN)C(=O)N[C@@H](CCCNC(=N)N)C(=O)N[C@@H](CCCCN)C(=O)N[C@@H](C)C(=O)N[C@@H](CO)C(=O)N[C@@H](CCCCN)C(=O)N[C@@H](CCCNC(=N)N)C(=O)N[C@@H](CCCCN)C(=O)N[C@@H](C)C(=O)N[C@@H](Cc1c[nH]c2ccccc12)C(=O)N[C@@H](CCCCN)C(=O)N[C@@H](CCCNC(=N)N)C(=O)N[C@@H](CCCCN)C(=O)N[C@@H](C)C(=O)N[C@@H](Cc1c[nH]c2ccccc12)C(N)=O (Ac-KRKASKRKAWKRKAW-NH2) |  |  | Activity [4]: 21.1%; Activity [5]: inactive |
| CSCC[C@H](NC(=O)[C@H](Cc1ccccc1)NC(=O)[C@H](CCCCN)NC(=O)[C@H](CC(=O)O)NC(=O)[C@H](CCC(=O)O)NC(=O)[C@H](CCCNC(=N)N)NC(=O)[C@H](CCCNC(=N)N)NC(=O)[C@@H](NC(=O)[C@@H]1CCCN1C(=O)CNC(=O)CNC(=O)CNC(=O)[C@H](CCC(N)=O)NC(=O)[C@@H]1CCCN1C(=O)[C@H]1CCCN1C(=O)[C@H](CCCNC(=N)N)NC(=O)[C@H](CCCNC(=N)N)NC(=O)[C@H](CCCNC(=N)N)NC(=O)[C@H](CCC(N)=O)NC(=O)[C@H](CCCNC(=N)N)NC(=O)[C@H](CCCNC(=N)N)NC(=O)[C@H](CCCCN)NC(=O)[C@H](CCCCN)NC(=O)[C@H](CCCNC(=N)N)NC(=O)CNC(=O)[C@H](C)NC(C)=O)[C@@H](C)O)C(=O)N[C@@H](Cc1ccc(O)cc1)C(=O)N[C@@H](Cc1ccccc1)C(N)=O | inactive | inactive |  |
